Measurements: ChEMBL document CHEMBL1146610, “Improved gelatinase a selectivity by novel zinc binding groups containing galardin derivatives” (Bioorg Med Chem Lett, 2003)

Columns and labels:
Interstitial collagenase = target: T1, Interstitial collagenase (Homo sapiens, UniProt P03956); test: Inhibition of matrix metalloprotease-1
T1 sequence (P03956 whole entry): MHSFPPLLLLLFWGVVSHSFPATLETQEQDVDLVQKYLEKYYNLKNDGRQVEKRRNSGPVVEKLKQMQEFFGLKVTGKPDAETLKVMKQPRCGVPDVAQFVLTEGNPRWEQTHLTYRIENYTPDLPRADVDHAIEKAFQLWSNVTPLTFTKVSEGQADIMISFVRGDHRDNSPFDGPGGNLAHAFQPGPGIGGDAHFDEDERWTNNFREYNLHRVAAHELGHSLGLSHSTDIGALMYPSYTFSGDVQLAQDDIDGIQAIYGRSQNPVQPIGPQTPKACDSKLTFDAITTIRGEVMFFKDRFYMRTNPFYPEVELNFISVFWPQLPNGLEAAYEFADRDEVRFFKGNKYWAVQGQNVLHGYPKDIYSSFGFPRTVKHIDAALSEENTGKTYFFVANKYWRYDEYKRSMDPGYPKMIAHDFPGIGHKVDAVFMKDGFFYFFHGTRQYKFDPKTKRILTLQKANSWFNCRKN

[1] = target: 72 kDa type IV collagenase (Homo sapiens, UniProt P08253); test: Inhibition of Matrix metalloprotease-2
Chain of 72 kDa type IV collagenase (P08253 whole entry): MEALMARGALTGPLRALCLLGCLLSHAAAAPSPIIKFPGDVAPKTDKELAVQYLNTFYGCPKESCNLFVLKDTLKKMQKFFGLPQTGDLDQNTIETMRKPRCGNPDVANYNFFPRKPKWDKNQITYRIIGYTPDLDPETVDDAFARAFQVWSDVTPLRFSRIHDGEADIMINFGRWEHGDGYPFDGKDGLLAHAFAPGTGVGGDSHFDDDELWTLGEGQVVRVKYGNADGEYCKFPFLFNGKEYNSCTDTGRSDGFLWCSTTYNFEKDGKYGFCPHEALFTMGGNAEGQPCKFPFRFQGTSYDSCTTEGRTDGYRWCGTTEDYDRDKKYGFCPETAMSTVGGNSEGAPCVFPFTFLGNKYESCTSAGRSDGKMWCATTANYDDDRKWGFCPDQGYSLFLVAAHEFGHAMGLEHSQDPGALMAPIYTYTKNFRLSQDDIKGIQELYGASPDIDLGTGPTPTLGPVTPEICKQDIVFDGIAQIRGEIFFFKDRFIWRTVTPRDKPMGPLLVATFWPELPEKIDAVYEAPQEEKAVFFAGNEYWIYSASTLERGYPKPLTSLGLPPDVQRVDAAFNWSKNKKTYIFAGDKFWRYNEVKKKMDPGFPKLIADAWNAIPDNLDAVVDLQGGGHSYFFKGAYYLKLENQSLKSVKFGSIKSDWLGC

| IC50 (Interstitial collagenase) [nM] | IC50 [1] [nM] | Structure (SMILES) |
| --- | --- | --- |
| 860 | 540 | CNC(=O)[C@H](Cc1c[nH]c2ccccc12)NC(=O)[C@@H](CC(=O)c1ccc[nH]1)CC(C)C |
| 60 | 50 | CNC(=O)C(Cc1c[nH]c2ccccc12)NC(=O)[C@@H](CC(=O)Nc1ccccn1)CC(C)C (stereo partly specified) |
| – | 20 | CNC(=O)C(Cc1c[nH]c2ccccc12)NC(=O)[C@@H](CC(=O)O)CC(C)C (stereo partly specified) |
| 50 | 550 | CNC(=O)C(Cc1c[nH]c2ccccc12)NC(=O)[C@@H](CC(=O)NN)CC(C)C (stereo partly specified) |
| > 10000 | 30 | CNC(=O)C(Cc1c[nH]c2ccccc12)NC(=O)[C@@H](CC(=O)NNS(=O)(=O)c1ccc(C)cc1)CC(C)C (stereo partly specified) |
| 730 | 180 | CNC(=O)[C@H](Cc1c[nH]c2ccccc12)NC(=O)[C@@H](CC(=O)c1ccccn1)CC(C)C |
